US20030166516A1, “Methods of treating, preventing, or inhibiting inflammation with exumolide compounds” (priority 2001, published 2003)
Where a SMILES comes first, the peptide text is derived from it. [ ]: non-standard residue; d: D form. Hica(2S) = CC(C)C[C@H](O)C(=O)O; NMeL = CN[C@@H](CC(C)C)C(=O)O

Key:
[1] = system: edema caused by phorbol 12-myristate 13-acetate (PMA) in mouse ear; experiment: Inhibition of mouse ear edema (PMA mouse ear model); assay type: in vivo, mice; settings: for inflammation caused by PMA (result in words): irritant phorbol 12-myristate 13-acetate (PMA)
Description: The efficacy of Exumolide compounds as an anti-inflammatory agent was established by the following assay. Exumolide A was topically applied in acetone to the inside pinnae of the ears of mice in a solution comprising an edema-causing irritant, phorbol 12-myristate 13-acetate (PMA). Specifically, 2 μg/ear of PMA alone or in combination with 50 μg/ear of Exumolide A was applied to the left ears (5 mice per treatment group) and acetone was applied to all right ears. After 3 hours, 20 minutes incubation, the mice were sacrificed, the ears removed and bores taken and weighed. Edema was measured by subtracting the weight of the right ear (acetone control) from the weight of the left ear (treated). Results were recorded as % decrease (inhibition) or % increase (potentiation) in edema relative to the PMA control group edema.

cell proliferation = experiment: conventional [3H]-thymidine incorporation assays; assay type: cell-based
Description: Thus, the present invention also provides a method of treating, preventing, or inhibiting inflammation or an inflammatory disease or disorder in a subject without inhibiting cell proliferation in the subject.

[2] = reported on isolation, Fenical et al. (1998) Tetrahed. Letts. 39:2463-2466; cited from earlier work

CC(C)C[C@@H]1OC(=O)[C@@H]2CCCN2C(=O)[C@H](Cc2ccccc2)NC(=O)[C@H](Cc2ccccc2)NC(=O)[C@H](CC(C)C)N(C)C(=O)[C@@H]2CCCN2C1=O [Exumolide A] (cyclo(FFP[Hica(2S)]P[NMeL]))
Edema (mg ± SEM) ([1]; 50 ug/ear topical in acetone with 2 μg/ear PMA, left minus right ear bore weight after 3 hours, 20 minutes): 4.3 ± 1.0 mg | inflammation caused by PMA (result in words) [1]: prevent or inhibit inflammation | inhibition of cell proliferation (cell proliferation): do not inhibit cell proliferation | antibiotic activity [2]: exhibit antibiotic activity

CC(C)C[C@@H]1NC(=O)[C@@H]2CCCN2C(=O)[C@H](CC(C)C)OC(=O)[C@@H]2CCCN2C(=O)[C@H](Cc2ccccc2)NC(=O)[C@H](Cc2ccccc2)NC1=O [Exumolide B] (cyclo(FFP[Hica(2S)]PL))
inflammation caused by PMA (result in words) [1]: prevent or inhibit inflammation | inhibition of cell proliferation (cell proliferation): do not inhibit cell proliferation | antibiotic activity [2]: exhibit antibiotic activity
